From ChEMBL document CHEMBL1201862, “PubChem BioAssay data set” (2004)
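96-well plates; 48 h exposure; 5 concentrations. Endpoints by linear interpolation between flanking doses. Not reached: highest tested concentration assigned. Abbreviation: GI50, concentration required for 50% inhibition of growth.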 Calls of active or inactive are those of the source. No stated cut-off is given here; in the data, active = GI50 up to about 1.1 µM and inactive = higher.

Assays:
Assay in all cases: NCI tumour cell line growth inhibition, 48 h
LOX IMVI = test system: LOX IMVI
HCT-15 = test system: HCT-15
U-251 = test system: U-251
SF-295 = test system: SF-295
SNB-19 = test system: SNB-19
TK-10 = test system: TK-10
CCRF-CEM = test system: CCRF-CEM
SW-620 = test system: SW-620
HCT-116 = test system: HCT-116
Malme-3M = test system: Malme-3M
OVCAR-5 = test system: OVCAR-5
M14 = test system: M14
HT-29 = test system: HT-29
MOLT-4 = test system: MOLT-4
IGROV-1 = test system: IGROV-1
UACC-257 = test system: UACC-257
K562 = test system: K562
SK-MEL-28 = test system: SK-MEL-28
SK-MEL-2 = test system: SK-MEL-2

Measured: GI50

N#Cc1cc(-c2nc3c(F)cccc3s2)ccc1N
inactive: LOX IMVI > 100 µM | U-251 > 100 µM | SF-295 > 100 µM | SNB-19 > 100 µM | TK-10 4.26 µM | CCRF-CEM 85.5 µM | SW-620 > 100 µM | HCT-116 > 100 µM | Malme-3M 88.9 µM | OVCAR-5 > 100 µM | M14 > 100 µM | HT-29 > 100 µM | MOLT-4 > 100 µM | IGROV-1 6.1 µM | UACC-257 > 100 µM | K562 > 100 µM
> 100 µM: HCT-15

OC1(C2(c3ccc(Cl)cc3)CCCC2)c2ccccc2C2=NCCN21 (configuration not stated)
inactive: LOX IMVI 14.4 µM | U-251 14.2 µM | SF-295 16.5 µM | SNB-19 16.4 µM | TK-10 15.1 µM | CCRF-CEM 14.4 µM | SW-620 22.8 µM | HCT-116 11.7 µM | Malme-3M 17.7 µM | OVCAR-5 15.8 µM | SK-MEL-28 15.3 µM | M14 14.2 µM | HT-29 10.8 µM | MOLT-4 13.3 µM | IGROV-1 12.9 µM | UACC-257 14.2 µM | K562 4.81 µM
15.6 µM: HCT-15

COc1ccc2oc(C(=O)N3CC(CCl)c4ccc([N+](=O)[O-])cc43)cc2c1 (configuration not stated)
active: IGROV-1 0.103 µM
inactive: LOX IMVI 67 µM | U-251 26 µM | SF-295 13 µM | SNB-19 25.2 µM | TK-10 33.2 µM | SW-620 > 100 µM | HCT-116 89.1 µM | SK-MEL-2 26.4 µM | SK-MEL-28 > 100 µM | M14 89.9 µM | UACC-257 > 100 µM | K562 > 100 µM

O=C(/C=C/c1ccccc1)/C=N/N1C(=S)N(c2ccccc2)C(=N\c2ccccc2)/C1=N/c1ccccc1
> 100 µM: HCT-15
inactive: U-251 > 100 µM | SF-295 > 100 µM | SNB-19 > 100 µM | TK-10 > 100 µM | SW-620 > 100 µM | HCT-116 43.1 µM | Malme-3M > 100 µM | SK-MEL-2 > 100 µM | OVCAR-5 > 100 µM | SK-MEL-28 > 100 µM | M14 > 100 µM | HT-29 > 100 µM | MOLT-4 > 100 µM | IGROV-1 > 100 µM | UACC-257 > 100 µM | K562 > 100 µM

CCOC(=O)C1=C(N)N2C(=N[C@H]3CCCC[C@@H]32)N=C1
inactive: LOX IMVI > 100 µM | U-251 > 100 µM | SF-295 > 100 µM | SNB-19 > 100 µM | SW-620 > 100 µM | HCT-116 > 100 µM | Malme-3M > 100 µM | SK-MEL-2 > 100 µM | OVCAR-5 > 100 µM | SK-MEL-28 > 100 µM | M14 > 100 µM | HT-29 > 100 µM | MOLT-4 > 100 µM | IGROV-1 > 100 µM | UACC-257 > 100 µM | K562 > 100 µM
> 100 µM: HCT-15

Cc1nc(C)c(N2CCN(C(=O)O)CC2)c(O)n1
inactive: LOX IMVI > 100 µM | U-251 > 100 µM | SF-295 > 100 µM | SNB-19 > 100 µM | TK-10 > 100 µM | CCRF-CEM > 100 µM | SW-620 > 100 µM | HCT-116 > 100 µM | Malme-3M > 100 µM | SK-MEL-28 > 100 µM | M14 > 100 µM | HT-29 > 100 µM | MOLT-4 > 100 µM | IGROV-1 > 100 µM | UACC-257 > 100 µM | K562 > 100 µM
> 100 µM: HCT-15

Cc1ccc(/C=C2/NC(=S)SC2=O)cc1
24.2 µM: HCT-15
inactive: LOX IMVI 32.8 µM | U-251 43.9 µM | SF-295 27.6 µM | SNB-19 29.5 µM | TK-10 18.1 µM | SW-620 54.2 µM | HCT-116 30.5 µM | SK-MEL-2 36.9 µM | OVCAR-5 40.8 µM | SK-MEL-28 > 100 µM | M14 33 µM | HT-29 28.6 µM | MOLT-4 33.8 µM | IGROV-1 37.7 µM | UACC-257 31.4 µM

CC(O)CN1c2ccccc2Sc2ccccc21 (configuration not stated)
inactive: LOX IMVI > 100 µM | U-251 > 100 µM | SF-295 > 100 µM | SNB-19 > 100 µM | TK-10 > 100 µM | CCRF-CEM > 100 µM | SW-620 > 100 µM | HCT-116 > 100 µM | Malme-3M > 100 µM | OVCAR-5 > 100 µM | SK-MEL-28 > 100 µM | M14 > 100 µM | HT-29 > 100 µM | MOLT-4 > 100 µM | IGROV-1 > 100 µM | UACC-257 > 100 µM | K562 > 100 µM
> 100 µM: HCT-15

OCC1OC(c2cccc3cc(O)c(O)cc23)CC1O (configuration not stated)
> 100 µM: HCT-15
inactive: LOX IMVI > 100 µM | U-251 > 100 µM | SF-295 > 100 µM | SNB-19 > 100 µM | TK-10 > 100 µM | SW-620 > 100 µM | HCT-116 > 100 µM | SK-MEL-2 > 100 µM | OVCAR-5 > 100 µM | SK-MEL-28 > 100 µM | M14 > 100 µM | HT-29 > 100 µM | MOLT-4 > 100 µM | IGROV-1 64 µM | UACC-257 > 100 µM | K562 > 100 µM

COc1ccc(C2SC(C)C(=O)N2c2nc(-c3nc(-c4ccc(Cl)cc4)cs3)cs2)cc1 (configuration not stated)
> 100 µM: HCT-15
inactive: LOX IMVI > 100 µM | U-251 84.7 µM | SF-295 > 100 µM | SNB-19 > 100 µM | TK-10 > 100 µM | CCRF-CEM 85.3 µM | SW-620 > 100 µM | HCT-116 > 100 µM | Malme-3M > 100 µM | OVCAR-5 > 100 µM | SK-MEL-28 > 10 µM | M14 > 100 µM | HT-29 > 100 µM | MOLT-4 49.2 µM | IGROV-1 > 100 µM | UACC-257 > 100 µM | K562 > 100 µM

CC1CC[C@@]2(OC1)OC1CC3C4CCC5C[C@@H](OC6OC(CO)C(OC7OC(CO)C(O)C(OC8OC(CO)C(O)C(OC9OC(CO)C(O)C(O)C9O)C8O)C7OC7OC(CO)C(O)C(O)C7O)C(O)C6O)[C@H](O)C[C@]5(C)C4CC[C@]3(C)C1[C@@H]2C (some centres not stated)
> 80.5 µM: HCT-15
inactive: LOX IMVI > 80.5 µM | U-251 > 80.5 µM | SF-295 > 80.5 µM | SNB-19 > 80.5 µM | TK-10 > 80.5 µM | CCRF-CEM > 80.5 µM | SW-620 > 80.5 µM | HCT-116 > 80.5 µM | Malme-3M > 80.5 µM | OVCAR-5 > 80.5 µM | SK-MEL-28 > 80.5 µM | M14 > 80.5 µM | HT-29 > 80.5 µM | UACC-257 > 80.5 µM | K562 > 80.5 µM

CCN(CC)CCC(=O)c1ccc(C)cc1
inactive: LOX IMVI 29.9 µM | U-251 > 100 µM | SF-295 > 100 µM | SNB-19 > 100 µM | TK-10 > 10 µM | CCRF-CEM 10.1 µM | SW-620 17 µM | HCT-116 16.3 µM | Malme-3M 23 µM | OVCAR-5 17.3 µM | SK-MEL-28 16.3 µM | M14 19.1 µM | HT-29 20.8 µM | MOLT-4 18.5 µM | IGROV-1 17.7 µM | UACC-257 17.2 µM | K562 14.9 µM
18.7 µM: HCT-15
